Assay results reported in paper doi:10.1101/2024.12.01.626272v1 (biorxiv, 2024).

Target: T1, olaAHR2a (Oryzias latipes, UniProt A0A2I4U6J3)
T1 sequence (A0A2I4U6J3 1-904): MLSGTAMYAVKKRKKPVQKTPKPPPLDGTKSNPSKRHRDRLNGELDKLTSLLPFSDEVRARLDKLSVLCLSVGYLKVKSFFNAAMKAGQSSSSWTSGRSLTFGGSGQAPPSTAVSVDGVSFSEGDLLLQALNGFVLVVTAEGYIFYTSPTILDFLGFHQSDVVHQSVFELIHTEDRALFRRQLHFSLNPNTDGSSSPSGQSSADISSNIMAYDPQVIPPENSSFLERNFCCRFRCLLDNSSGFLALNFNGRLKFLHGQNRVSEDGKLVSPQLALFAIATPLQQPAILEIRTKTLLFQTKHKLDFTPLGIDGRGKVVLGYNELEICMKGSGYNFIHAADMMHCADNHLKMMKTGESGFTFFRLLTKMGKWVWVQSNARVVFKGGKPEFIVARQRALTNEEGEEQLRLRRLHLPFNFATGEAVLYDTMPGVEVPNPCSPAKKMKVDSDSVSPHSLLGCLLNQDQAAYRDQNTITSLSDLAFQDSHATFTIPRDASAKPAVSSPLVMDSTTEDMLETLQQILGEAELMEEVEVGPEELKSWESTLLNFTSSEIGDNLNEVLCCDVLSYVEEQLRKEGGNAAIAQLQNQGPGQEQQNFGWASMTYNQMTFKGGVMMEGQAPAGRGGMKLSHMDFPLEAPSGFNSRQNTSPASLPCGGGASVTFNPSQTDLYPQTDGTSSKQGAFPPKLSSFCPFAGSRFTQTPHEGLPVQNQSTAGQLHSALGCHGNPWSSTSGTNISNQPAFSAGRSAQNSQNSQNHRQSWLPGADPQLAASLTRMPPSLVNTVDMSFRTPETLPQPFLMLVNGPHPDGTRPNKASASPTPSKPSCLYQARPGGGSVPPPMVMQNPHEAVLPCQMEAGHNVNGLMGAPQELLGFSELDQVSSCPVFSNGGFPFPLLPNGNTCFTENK
Test: luciferase reporter transactivation
Type: cell-based

EC50: 19.4 ± 1.98 nM
Structure (SMILES): O=c1cc(-c2ccccc2)oc2ccc3ccccc3c12 [BNF]
